Experimental data reported in patent US9670545B2, “Methods and kits for treating and classifying individuals at risk of or suffering from TRAP1 change-of-function” (Courtagen Life Sciences, Inc., priority 2013, dated 2017).

Test system: patient with I253V in the TRAP1 ATPase domain
Test: Case Report 1: clinical response of a patient with I253V in the TRAP1 ATPase domain to supplementation
Assay type: in vivo, human
Settings: single patient
Procedure: A person was referred to the inventors because of a failure-to-thrive and hypoglycemia. Additional problems included constipation, temperature instability, tachycardia, delayed gastric emptying (confirmed by Scintiscan), almost-daily pain (headaches, abdominal pain, leg cramps), chronic fatigue (sleeping up to 22 hours a day), anemia (requiring multiple transfusions), repetitive episodes of right arm dyskinesia (2 minutes each, twice a week), and neurodevelopmental issues (gross motor delay, auditory processing problem, and memory defects, but cognitive delay is only 6 months). […] Episodic dyskinesia later resolved with L-arginine supplementation. However, gastrointestinal dysfunction worsened, necessitating a gastrostomy tube, followed by a jejunostomy tube. […] Pertinent results of an extensive work-up include normal brain MR, normal video-EEG, severe free carnitine deficiency (<4 micromolar, normal >19; total carnitine 17), trace elevations on urine organic acids, respiratory alkalosis (hyperventilation), and hypoglycemia (even while receiving adequate jejunal feeds or parental nutrition). […] After finding the I253V in the TRAP1 ATPase domain, antioxidant therapy was intensified, and results are pending.

In the case of `N=C(N)NCCC[C@H](N)C(=O)O` [L-arginine], the “Episodic dyskinesia (repetitive episodes of right arm dyskinesia)” value is reported as “resolved”.
